Patent US6288125A, “Treatment of hiatial hernia” (Knoll Pharmaceuticals Company, priority 2000, dated 2001)

Test system: reuptake of all three monoamines
Assay: monoamine reuptake inhibition profile (in words, with reference to Table 1)
Assay type: biochemical, rat
Conditions: sibutramine through its pharmacologically active metabolites 1 and 2

## CC(C)CC(N(C)C)C1(c2ccc(Cl)cc2)CCC1 (stereo not shown) [sibutramine, N,N-dimethyl-1-[1-(4-chlorophenyl)cyclobutyl]-3-methylbutylamine]
  monoamine reuptake inhibition / selectivity in words: inhibits the reuptake of all three monoamines
